The results in this text go back to patent US7427503B2, “Method for transferring material in a cell system” (Eppendorf AG, priority 2000, dated 2008).

For assay [1], the system named is Jurkat cells. Briefly: Electroporation of Jurkat cells with and without trehalose in hypo-osmolar working medium. The class given is cell-based, human. As to conditions: 100 mOsm. The protocol: Electroporation of Cells with and without Trehalose in a Hypo-osmolar Working Medium.
A phosphate buffer with 1.15 mM K2HPO4/KH2PO4 buffer, pH 7.2, was used as a pulse medium. KCl at a concentration of 10 mM (α=1.5−1.6 mS/cm) was added as a conducting salt. After this, trehalose at the respective concentration was added to the pulse medium. Osmolarity was adjusted to 100 mOsm by the addition of inositol, so as to obtain a hypo-osmolar solution.
Jurkat cells that are cells of a human T-lymphocytes line were used. 40 μg/ml propidium iodide, which is a membrane-impermeable DNA dye, was added as the material to be transferred.
Pulse application took place after 10 minutes of incubation prior to pulse application, in the pulse medium at room temperature (cell density: 2-3×10^6 cells/ml). Pulse duration was 20 μs.
Electroporation took place in an Eppendorf multiporator. After pulse application, the pores were left to reseal for 10 min at room temperature.
Electropermeabilisation took place at the following trehalose concentrations: 0 mM and 40 mM (α,α-trehalose).
Pulsing takes place at 4° C. or at room temperature. This can be single pulsing; however, multiple pulsing involving up to 3 pulses can at times be advantageous.

Assay [2] relates to Jurkat cells. Briefly: Electroporation of Jurkat cells with and without trehalose in iso-osmolar working medium. Type of assay: cell-based, human. The following applies: 290 mOsm. The protocol: Electroporation of Cells with and without Trehalose in an Iso-osmolar Working Medium.
Essentially, the same experimental conditions as in Example 1 applied, except that the osmolarity of the pulse medium was adjusted to iso-osmolar conditions by adding inositol to 290 mOsm.
Again, α,α-trehalose was added in the following concentrations: 0 mM and 40 mM.

On to `OC[C@H]1O[C@H](O[C@H]2O[C@H](CO)[C@@H](O)[C@H](O)[C@H]2O)[C@H](O)[C@@H](O)[C@@H]1O` [trehalose, α,α-trehalose], for which the propidium iodide uptake entry is “only slightly influenced” in the assay on Jurkat cells [1] (40 mM trehalose vs 0 mM, 40 μg/ml propidium iodide, FIG. 1) and “varies less markedly” in the assay on Jurkat cells [2] (40 mM trehalose vs 0 mM, FIG. 3). Also, the “pulse efficiency (product of propidium iodide uptake and survival rate)” value with Jurkat cells [1] (40 mM trehalose vs control without trehalose, increasing field strength, FIG. 2) was “significantly above the values of a control sample”. Besides, in the assay on Jurkat cells [2] (40 mM trehalose vs 0 mM, above all at high field strength, FIG. 3), the survival rate result is listed as “untreated cells (0 mM, outline squares) is many times less than in the case of cells treated with 40 mM trehalose”. Also, in the assay on Jurkat cells [2] (40 mM trehalose, increasing field strength, FIG. 4), the pulse efficiency entry is “gradual increase in the pulse efficiency”.
